PMC10443802, “Targeting a xenobiotic transporter to ameliorate vincristine-induced sensory neuropathy” (JCI Insight, 2023)
Where “and” joins values, the source holds several entries; their conditions need not be identical. Equal values may be shown once.

Columns and labels:
[1] = target: T1, hOATP1B3 (Homo sapiens, UniProt Q9NPD5); assay: Inhibition of EβG uptake in HEK293 cells overexpressing hOATP1B3; settings: HEK293 hOATP1B3; inhibitor 10 μM, 15-min pre-incubation
T1 sequence (Q9NPD5 1-702): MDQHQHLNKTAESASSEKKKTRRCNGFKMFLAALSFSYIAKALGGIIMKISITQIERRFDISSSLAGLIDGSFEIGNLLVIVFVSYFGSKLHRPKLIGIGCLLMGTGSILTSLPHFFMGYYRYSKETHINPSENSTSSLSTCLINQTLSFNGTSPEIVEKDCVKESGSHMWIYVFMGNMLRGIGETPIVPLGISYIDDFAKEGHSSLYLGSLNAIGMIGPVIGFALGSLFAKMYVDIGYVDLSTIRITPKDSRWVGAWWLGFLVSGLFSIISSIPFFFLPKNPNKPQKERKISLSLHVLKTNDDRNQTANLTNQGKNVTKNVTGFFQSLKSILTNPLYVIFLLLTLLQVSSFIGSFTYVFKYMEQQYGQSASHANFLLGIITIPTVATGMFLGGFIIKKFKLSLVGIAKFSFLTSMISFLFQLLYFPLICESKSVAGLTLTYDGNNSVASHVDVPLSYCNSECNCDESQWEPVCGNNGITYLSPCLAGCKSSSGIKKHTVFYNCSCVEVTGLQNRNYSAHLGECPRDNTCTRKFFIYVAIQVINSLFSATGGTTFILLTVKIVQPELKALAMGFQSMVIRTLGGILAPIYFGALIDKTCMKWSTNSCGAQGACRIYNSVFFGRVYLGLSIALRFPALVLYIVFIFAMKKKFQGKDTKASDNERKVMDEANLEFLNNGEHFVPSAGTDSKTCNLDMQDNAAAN

[2] = target: T1, hOATP1B3; assay: Nilotinib uptake in HEK293 cells overexpressing hOATP1B3; format: in vitro ADME; settings: HEK293 cells overexpressing hOATP1B3 vs vector control
[3] = system: L1210; settings: vincristine 1 μM, 30 min, nilotinib 10 μM
Excerpt: (A) Gene expression of the OATP1B2 gene in L1210 and P388D1 murine leukemia cells
normalized to total protein levels. All data presented represent the mean (bars) ± SEM (error bars).

[4] = target: hOATP1A2 (Homo sapiens, UniProt P46721); assay: Vincristine uptake screen, HeLa cells overexpressing hOATP1A2; format: in vitro ADME
Procedure: (§1) Relative uptake is expressed as percentage change compared with empty vector controls (n = 4–14 per group). […] Human OATP1B1 and OATP1B3 transporter–overexpressed cells were used as positive controls; empty vector controls were used as the negative control. […] Mechanical allodynia (C), thermal hyperalgesia (D), and sciatic nerve maximal action potential amplitudes (E) are expressed as percentage change relative to baseline values (n = 6–8 per group). Statistical analysis was performed using a 2-way ANOVA with Bonferroni’s post hoc test. **P < 0.01, ***P < 0.001, ****P < 0.0001, compared with baseline values. […] Data are shown as mean ± SEM. […]
(§2) transfected with transporters of interest, including hOAT1, hOAT3, hOAT4, hOATP1A2, hOATP3A1, hOATP4A1, hOATP5A1, hOATP1C1, hOATP1B1, hOATP1B3, hOATP2B1, hOCT1, hOCT2, hOCTN1, hOCTN2, hASBT, hNTCP, hNPT1, hMATE1, hOSTα/β, hPEPT1, hPEPT2, rOatp1a1, rOatp1a4, rOatp1a5, rOatp1b2, rNtcp, rAsbt, rOat1, and rOct1. Cells were transfected with expression plasmid or vector control lacking any insert using Lipofectin reagent (Invitrogen). […] The cellular radioactivity was quantified by liquid scintillation counting as described above. […]
(§3) Samples were analyzed using real-time quantitative PCR and Taqman Probes (Applied Biosystems). The relative gene expression was determined using the ΔΔCt method, and normalized to the mouse or human housekeeping gene, GAPDH. […]

[5] = target: hOATP2B1 (Homo sapiens, UniProt O94956); assay: Vincristine uptake screen, HeLa cells overexpressing hOATP2B1; format: in vitro ADME
Procedure: as §1, §2, §3

[6] = system: MOLT4; assay: Cytotoxicity of vincristine with or without nilotinib, MTT assay, MOLT4; format: cell-based, human; settings: vincristine alone, individual replicates
[7] = system: mice; assay: Gross motor performance, automated elevated ladder test; format: in vivo, mouse
[8] = target: mMATE1 (Mus musculus, UniProt Q8K0H1); assay: Substrate uptake in HEK293 cells overexpressing mMATE1; settings: HEK293 mouse MATE1
mMATE1, sequence (Q8K0H1 whole entry): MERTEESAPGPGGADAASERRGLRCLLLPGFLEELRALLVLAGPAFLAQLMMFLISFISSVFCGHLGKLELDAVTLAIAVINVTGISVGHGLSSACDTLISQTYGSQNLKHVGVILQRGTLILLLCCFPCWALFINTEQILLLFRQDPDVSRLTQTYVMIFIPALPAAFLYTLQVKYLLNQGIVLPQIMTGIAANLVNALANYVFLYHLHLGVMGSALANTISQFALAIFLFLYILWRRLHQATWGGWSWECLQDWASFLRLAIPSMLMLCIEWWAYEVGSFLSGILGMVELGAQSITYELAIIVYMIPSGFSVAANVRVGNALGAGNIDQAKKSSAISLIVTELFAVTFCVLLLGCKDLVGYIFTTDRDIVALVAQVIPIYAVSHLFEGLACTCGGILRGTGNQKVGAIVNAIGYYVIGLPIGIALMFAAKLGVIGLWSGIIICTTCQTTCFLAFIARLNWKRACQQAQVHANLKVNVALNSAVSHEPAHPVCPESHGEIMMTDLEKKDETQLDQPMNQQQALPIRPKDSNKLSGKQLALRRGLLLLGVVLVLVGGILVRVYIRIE
Procedure: on OATP1B1, OATP1B3, or OATP1B2 function was evaluated using EβG (Axxora LLC) as the
transfected with transporters of interest, including hOAT1, hOAT3, hOAT4, hOATP1A2, hOATP3A1, hOATP4A1, hOATP5A1, hOATP1C1, hOATP1B1, hOATP1B3, hOATP2B1, hOCT1, hOCT2, hOCTN1, hOCTN2, hASBT, hNTCP, hNPT1, hMATE1, hOSTα/β, hPEPT1, hPEPT2, rOatp1a1, rOatp1a4, rOatp1a5, rOatp1b2, rNtcp, rAsbt, rOat1, and rOct1. Cells were transfected with expression plasmid or vector control lacking any insert using Lipofectin reagent (Invitrogen). Sixteen hours thereafter, cells were washed with transport media (OPTIMEM, Invitrogen) and treated with radiolabeled drug. At various time intervals, cells were washed three times with ice-cold PBS and then lysed with 1% sodium dodecyl sulfate. The cellular radioactivity was quantified by liquid scintillation counting as described above. Similar analyses were performed in HEK293 cells transfected with hOATP1A2, hOATP1C1, mMATE1, and hMATE1, with cells seeded in poly lysine pre-coated 12-well plates. For hOATP1A2 and hOATP1C1, transient transfections were performed with either an empty vector, OATP1A2, or OATP1C1 using Lipofectamine 2000 according to the manufacturers protocol (Invitrogen).

hOATP1A2, sequence (P46721 whole entry): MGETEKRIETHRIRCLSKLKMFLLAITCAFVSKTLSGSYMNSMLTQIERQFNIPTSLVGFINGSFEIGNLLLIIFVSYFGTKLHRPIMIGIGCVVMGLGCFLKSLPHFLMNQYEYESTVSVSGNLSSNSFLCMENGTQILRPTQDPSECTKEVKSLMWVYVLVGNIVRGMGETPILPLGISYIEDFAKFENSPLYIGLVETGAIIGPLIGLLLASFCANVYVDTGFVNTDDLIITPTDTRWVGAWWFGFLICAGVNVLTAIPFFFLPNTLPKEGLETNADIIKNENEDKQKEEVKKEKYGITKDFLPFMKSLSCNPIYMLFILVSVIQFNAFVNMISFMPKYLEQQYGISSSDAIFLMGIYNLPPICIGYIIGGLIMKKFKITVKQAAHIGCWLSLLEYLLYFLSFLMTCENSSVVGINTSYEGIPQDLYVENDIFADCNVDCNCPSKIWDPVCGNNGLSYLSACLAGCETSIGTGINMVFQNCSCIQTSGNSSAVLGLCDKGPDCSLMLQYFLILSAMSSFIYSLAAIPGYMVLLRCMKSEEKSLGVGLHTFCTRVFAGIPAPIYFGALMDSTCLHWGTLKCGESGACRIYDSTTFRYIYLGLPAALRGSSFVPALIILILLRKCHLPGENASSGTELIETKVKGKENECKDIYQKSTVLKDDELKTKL
hOATP2B1, sequence (O94956 whole entry): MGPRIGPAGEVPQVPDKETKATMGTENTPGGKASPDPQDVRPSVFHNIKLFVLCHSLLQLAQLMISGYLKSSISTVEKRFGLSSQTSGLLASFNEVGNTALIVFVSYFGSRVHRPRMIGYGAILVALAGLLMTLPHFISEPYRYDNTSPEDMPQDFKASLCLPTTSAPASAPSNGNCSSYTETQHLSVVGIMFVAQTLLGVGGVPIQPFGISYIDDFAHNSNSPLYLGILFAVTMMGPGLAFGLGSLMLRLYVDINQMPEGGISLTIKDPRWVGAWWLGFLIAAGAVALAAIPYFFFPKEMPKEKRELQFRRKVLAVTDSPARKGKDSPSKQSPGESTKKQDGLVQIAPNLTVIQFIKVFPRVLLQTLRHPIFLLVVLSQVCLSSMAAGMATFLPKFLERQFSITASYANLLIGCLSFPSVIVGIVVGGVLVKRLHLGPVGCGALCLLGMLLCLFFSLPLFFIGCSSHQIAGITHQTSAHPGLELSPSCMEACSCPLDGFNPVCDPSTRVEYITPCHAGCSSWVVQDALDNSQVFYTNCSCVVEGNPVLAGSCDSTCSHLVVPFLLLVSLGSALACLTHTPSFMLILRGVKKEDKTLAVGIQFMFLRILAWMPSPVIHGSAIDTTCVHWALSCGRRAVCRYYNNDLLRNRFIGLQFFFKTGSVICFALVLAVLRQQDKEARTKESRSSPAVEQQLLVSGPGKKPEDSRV

Compound: Cc1cn(-c2cc(NC(=O)c3ccc(C)c(Nc4nccc(-c5cccnc5)n4)c3)cc(C(F)(F)F)c2)cn1 [Nilotinib, nilotinib]
- EβG uptake (% of vehicle) [1]: 3.038 % of vehicle and 2.924 % of vehicle and 2.718 % of vehicle
- Nilotinib uptake (% of control) [2]: 123.521 % of control and 118.661 % of control and 108.968 % of control
- Influence on uptake of vincristine [3]: did not influence the uptake of vincristine

Compound: CC[C@]1(O)C[C@H]2CN(CCc3c([nH]c4ccccc34)[C@@](C(=O)OC)(c3cc4c(cc3OC)N(C=O)[C@H]3[C@@](O)(C(=O)OC)[C@H](OC(C)=O)[C@]5(CC)C=CCN6CC[C@]43[C@@H]65)C2)C1 [Vincristine, vincristine]
- Vincristine uptake (% of vector control) [4]: 186.00 % of vector control and 176.00 % of vector control and 142.00 % of vector control and 167.00 % of vector control and 183.00 % of vector control and 171.00 % of vector control and 148.00 % of vector control and 164.00 % of vector control
- Vincristine uptake (% of vector control) [5]: 113.00 % of vector control and 80.00 % of vector control and 88.00 % of vector control and 105.00 % of vector control and 83.00 % of vector control and 131.00 % of vector control and 125.00 % of vector control and 135.00 % of vector control
- IC50 ([6]; Homo sapiens, MOLT-4, MOLT4 cells): 6.88 nM
- IC50 ([6]; MOLT4 cells): 6.2 nM and 9.07 nM and 9.04 nM and 7.56 nM and 10.2 nM and 7.73 nM and 7.86 nM and 6.95 nM
- Gross motor performance (automated ladder and open field tests) ([7]; WT mice or OATP1B2-/- mice, single i.p. dose 1 mg/kg): did not affect gross motor performance
- Number of missed steps ([7]; Wild-type mice, Day 2): 7.667 and 9.667 and 8.333 and 5.667 and 8 and 10.6667 and 9.333
- Contribution of transporter to cellular uptake of vincristine [8]: do not appreciably contribute to the cellular uptake of vincristine
